From patent US7973218B2, “Methods and compositions for controlling weeds” (Pioneer Hi-Bred International, Inc., priority 2005, dated 2011)
Read-outs that look alike come from different tables or passages of the source.

Tests used:
[1] = tested on: Parent elite stiff stalk inbred corn; assay: Preemergence herbicide application to potted corn (fresh weight, visual injury); format: in vivo; conditions: for Crop visual injury at 200 g/ha: Zea mays, pre-emergence, 672 h, read-out: % Visual Injury; for Fresh Weight: fresh shoots weighed 4 weeks after treatment, untreated 36.7 g
[2] = tested on: Heterozygous GAT-HRA corn; assay: as above; format: in vivo; conditions: for Crop visual injury at 200 g/ha: Zea mays, pre-emergence, 672 h, read-out: % Visual Injury; for Fresh Weight: fresh shoots weighed 4 weeks after treatment, untreated 47.0 g
[3] = tested on: Parent elite stiff stalk inbred corn; assay: Postemergence herbicide application to potted corn (fresh weight, visual injury); format: in vivo; conditions: for Fresh Weight: weighed 2 weeks after treatment, untreated 76.4 g; for % visual injury to corn at 200 g/ha / % Visual Injury: 0% no injury, 100% plant death
[4] = tested on: Heterozygous GAT-HRA corn; assay: as above; format: in vivo; conditions: for Visual crop injury (%) at 200 g/ha / % Visual Injury: 0% no injury, 100% plant death; for Fresh Weight: weighed 2 weeks after treatment, untreated 98.8 g
GAT-HRA maize = assay: Postemergence herbicide spray of maize at V2 stage, injury evaluated 10-14 days after; format: in vivo; conditions: 200 g ai/ha (metsulfuron-methyl 35 g ai/ha)
Procedure: GAT-HRA maize plants were evaluated for tolerance to glyphosate and other herbicides. One protocol used in this evaluation was as follows. At the V2 stage (Ritchie and Hanway (1982), “How a corn plant develops” Spec. Rep. 48. (Coop. Ext. Ser., Iowa State Univ., Ames, Iowa)), plant heights were measured and herbicides were applied by spray application. Ten to fourteen days after the spray application, the transgenic plants were evaluated for injury symptoms and measured for plant height again in order to determine plant growth rates.
Plants were then evaluated at various times after treatment, such as 10 or 14 days after treatment. […] Leaf samples were taken from GAT-HRA plants and used in quantitative PCR analysis and other analyses to determine the number and arrangement of copies of the GAT and HRA polynucleotides that had been integrated into the plant genome.
Other protocols for evaluation included treatment with imidazolinone herbicides, such as the commercial herbicide Lightning® (a combination of imazapyr and imazethapyr), which was applied to GAT-HRA maize at the V2 leaf stage at four times the field label rate (250 g ai/ha). […] Another protocol for evaluation included treatment with imidazolinone herbicides as well as sulfonylurea and glyphosate herbicides. In these tests, GAT-HRA maize was treated with various combinations of Lightning® (imazapyr and imazethapyr), Basis® (rimsulfuron and thifensulfuron-methyl) and WeatherMAX® (glyphosate potassium salt). These herbicides were applied at the V2 stage as follows: Lightning® at twice the field label rate (1.8 oz ai/ac (133 ml ai/ha)), Basis® at twice the field label rate (0.5 oz ai/ac (36.9 ml ai/ha)) and WeatherMax® at four times the field label rate (43 oz ai/ac). Fourteen days after the treatment application, the plants were evaluated. […] “Field label rate” refers to the application rate specified on the product label. Where the application rate for a particular situation is a range of rates, as used herein, the term “field label rate” indicates the upper end of that range. […]

control maize = assay: as above; format: in vivo; conditions: 200 g ai/ha (metsulfuron-methyl 35 g ai/ha)
[5] = tested on: Soybeans comprising the lead GAT7 event and also having HRA; assay: Greenhouse test confirming the field trial (Example 6B); format: in vivo, soybean; conditions: GAT/HRA Soybeans
Text: Example 6B provides greenhouse data that confirms the field trial data provided above in Example 6A. Soybeans comprising the lead GAT7 event and also having HRA were used in the studies.

[6] = tested on: Hairy Fleabane (Conyza bonariensis), glyphosate sensitive biotype; assay: Control of hairy fleabane by glyphosate, metsulfuron-methyl and two additives; format: in vivo; conditions: 10-15 leaf stage, 200 L ha^−1
Procedure: This example included the same treatments as used in Example 11, except the treatments were carried out on a glyphosate sensitive biotype of Kleinskraalhans (Conyza bonariensis).

[7] = tested on: non-glyphosate resistant ryegrass; assay: Control of ryegrass by glyphosate, metsulfuron-methyl and two additives; format: in vivo; conditions: metsulfuron-methyl (BRUSH-OFF) alone
Procedure: The example was conducted on non-glyphosate resistant ryegrass. As provided in Table 23, all treatments that included glyphosate [180 g a.i. L ha^−1 (0.5 L glyphosate (SCAT®))] plus metsulfuron-methyl (BRUSH-OFFS®) (5 and 10 g ha^−1) gave 100% control of the ryegrass.

[8] = preemergence, 200 g/ha, 0% no injury, 100% plant death, mean of four replications
[9] = preemergence, 200 g/ha, mean of four replications
[10] = 200 g/ha, mean of four replications
[11] = Zea mays, post-emergence, 200 g/ha, mean of four replications
[12] = Zea mays, post-emergence, 1870 g/ha

## CCOc1nc(F)cc2nc(S(=O)(=O)Nc3c(Cl)cccc3C(=O)OC)nn12 [Chloransulam-methyl, methyl 3-chloro-2-[[(5-ethoxy-7-fluoro-[1,2,4]triazolo [1,5-c]pyrimidin-2-yl)sulfonyl]amino]benzoate]
[1]; [8]
  Crop visual injury at 200 g/ha: 3%
[1]; [9]
  Fresh Weight: 5.5 g
[2]; [8]
  Crop visual injury at 200 g/ha: 3%
[3]; [10]
  Fresh Weight: 6.8 g
[3]; [11]
  % visual injury to corn at 200 g/ha: 96%
[4]; [11]
  Visual crop injury (%) at 200 g/ha: 3%

## CCOC(=O)c1ccccc1S(=O)(=O)NC(=O)Nc1nc(Cl)cc(OC)n1 [Chlorimuron-ethyl, ethyl 2-[[[[(4-chloro-6-methoxy-2-pyrimidinyl)amino]carbonyl]amino]sulfonyl]-benzoate]
GAT-HRA maize
  damage from the treatment: no significant damage
Control maize
  damage from the treatment: severely damaged or killed

## COc1nn(C(=O)NS(=O)(=O)c2ccccc2OC(F)(F)F)c(=O)n1C [Flucarbazone Na^+, 4,5-dihydro-3-methoxy-4-methyl-5-oxo-N-[[2-(trifluoromethoxy)phenyl]sulfonyl]-1H-1,2,4-triazole-1-carboxamide]
[1]; [8]
  Crop visual injury at 200 g/ha: 100%
[1]; [9]
  Fresh Weight: 0.0 g
[2]; [8]
  Crop visual injury at 200 g/ha: 40%
[3]; [10]
  Fresh Weight: 3.1 g
[3]; [11]
  % visual injury to corn at 200 g/ha: 100%
[4]; [10]
  Fresh Weight: 86.0 g
[4]; [11]
  Visual crop injury (%) at 200 g/ha: 14%

## COC(=O)c1ccc(C(F)(F)F)nc1S(=O)(=O)NC(=O)Nc1nc(OC)cc(OC)n1 [Flupyrsulfuron-methyl Na^+, methyl 2-[[[[(4,6-dimethoxy-2-pyrimidinyl)amino]carbonyl]amino]sulfonyl]-6-(trifluoromethyl)-3-pyridinecarboxylate]
[1]; [8]
  Crop visual injury at 200 g/ha: 87%
[2]; [8]
  Crop visual injury at 200 g/ha: 90%
[3]; [10]
  Fresh Weight: 5.2 g
[3]; [11]
  % visual injury to corn at 200 g/ha: 95%
[4]; [11]
  Visual crop injury (%) at 200 g/ha: 4%

## CP(=O)(O)CCC(N)C(=O)O (centres unmarked) [Glufosinate ammonium]
[3]; 1870 g/ha
  Fresh Weight: 2.4 g
[3]; [12]
  % visual injury to corn at 1870 g/ha: 99%
[4]; 1870 g/ha
  Fresh Weight: 112.3 g
[4]; [12]
  Visual crop injury (%) at 1870 g/ha: 1%

## CC(C)C1(C)N=C(c2ncccc2C(=O)O)NC1=O (centres unmarked) [Imazapyr]
GAT-HRA maize
  damage from the treatment: no significant damage
Control maize
  damage from the treatment: severely damaged or killed

## CCc1cnc(C2=NC(C)(C(C)C)C(=O)N2)c(C(=O)O)c1 (centres unmarked) [Imazethapyr]
[5]; Rimsulfuron 0 + Imazethapyr 560 g ai/ha, Treatment # 4
  % Growth Reduction: −1%
[5]; Rimsulfuron 0 + Imazethapyr 1024 g ai/ha, Treatment # 5
  % Growth Reduction: 10%

## COC(=O)c1ccc(I)cc1S(=O)(=O)NC(=O)Nc1nc(C)nc(OC)n1 [Iodosulfuron-methyl Na^+, methyl 4-iodo-2-[[[[(4-methoxy-6-methyl-1,3,5-triazin-2-yl)amino]carbonyl]amino]sulfonyl]benzoate]
[1]; [8]
  Crop visual injury at 200 g/ha: 92%
[2]; [8]
  Crop visual injury at 200 g/ha: 5%
[3]; [10]
  Fresh Weight: 3.5 g
[3]; [11]
  % visual injury to corn at 200 g/ha: 100%
[4]; [10]
  Fresh Weight: 95.0 g
[4]; [11]
  Visual crop injury (%) at 200 g/ha: 1%

## COC(=O)c1ccccc1S(=O)(=O)NC(=O)Nc1nc(C)nc(OC)n1 [Metsulfuron-methyl (BRUSH-OFF ®)]
[6]; metsulfuron-methyl (BRUSH-OFF) 5 g/ha
  Control (%): 100%
[6]; metsulfuron-methyl (BRUSH-OFF) 10 g/ha
  Control (%): 100%

## COC(=O)c1ccccc1S(=O)(=O)NC(=O)Nc1nc(C)nc(OC)n1 [Metsulfuron-methyl, methyl 2-[[[[(4-methoxy-6-methyl-1,3,5-triazin-2-yl)amino]carbonyl]amino]sulfonyl]benzoate]
GAT-HRA maize
  damage from the treatment: no significant damage
Control maize
  damage from the treatment: severely damaged or killed
[7]
  effect on its own: did nothing accept stunt the ryegrass plants slightly

## CCCOc1nn(C(=O)NS(=O)(=O)c2ccccc2C(=O)OC)c(=O)n1C [Propoxycarbazone Na^+, methyl 2-[[[(4,5-dihydro-4-methyl-5-oxo-3-propoxy-1H-1,2,4-triazol-1-yl)carbonyl]amino]sulfonyl]benzoate]
[1]
  Crop visual injury at 200 g/ha: 100%
[1]; [9]
  Fresh Weight: 0.6 g
[2]
  Crop visual injury at 200 g/ha: 100%
[3]; [10]
  Fresh Weight: 1.9 g
[3]; [11]
  % visual injury to corn at 200 g/ha: 100%
[4]; [11]
  Visual crop injury (%) at 200 g/ha: 9%

## COc1cc(OC)nc(Sc2cccc(Cl)c2C(=O)[O-])n1.[Na+] [Pyrithiobac Na^+]
[1]; [9]
  Fresh Weight: 0.0 g
[3]; [10]
  % Visual Injury: 100%
  Fresh Weight: 2.8 g
[4]; [10]
  % Visual Injury: 9%

## COC(=O)c1ccccc1S(=O)(=O)NC(=O)Nc1nc(C)cc(C)n1 [Sulfometuron-methyl, methyl 2-[[[[(4,6-dimethyl-2-pyrimidinyl)amino]carbonyl]amino]sulfonyl]-benzoate]
[3]; [10]
  Fresh Weight: 2.0 g

## COc1cc(OC)nc(NC(=O)NS(=O)(=O)c2ncccc2OCC(F)(F)F)n1 [Trifloxysulfuron Na^+, N-[[(4,6-dimethoxy-2-pyrimidinyl)amino]-carbonyl]-3-(2,2,2-trifluoroethoxy)-2-pyridinesulfonamide]
[1]; [8]
  Crop visual injury at 200 g/ha: 100%
[1]; [9]
  Fresh Weight: 0.0 g
[2]; [8]
  Crop visual injury at 200 g/ha: 0%
[2]; [9]
  Fresh Weight: 50.8 g
[3]; [10]
  Fresh Weight: 1.0 g
[3]; [11]
  % visual injury to corn at 200 g/ha: 100%
[4]; [10]
  Fresh Weight: 86.6 g
[4]; [11]
  Visual crop injury (%) at 200 g/ha: 29%

## COC(=O)c1cccc(C)c1S(=O)(=O)NC(=O)Nc1nc(OCC(F)(F)F)nc(N(C)C)n1 [Triflusulfuron-methyl]
[1]; [9]
  Fresh Weight: 26.3 g
[2]; [9]
  Fresh Weight: 53.5 g
[3]; [10]
  % Visual Injury: 100%
  Fresh Weight: 2.1 g
[4]; [10]
  % Visual Injury: 8%
  Fresh Weight: 110.9 g

## O=C(O)CNCP(=O)(O)O [glyphosate (ROUNDUP ®)]
[6]; glyphosate (ROUNDUP, 360 g a.i. L^−1) 0.5 L/ha
  Control (%): 12%

## Imazamethabenz-methyl
[1]; [9]
  Fresh Weight: 36.2 g
[2]; [9]
  Fresh Weight: 48.5 g
[3]; [10]
  % Visual Injury: 11%
  Fresh Weight: 66.9 g
[4]; [10]
  % Visual Injury: 16%
  Fresh Weight: 95.0 g
